Results: patent US20120232062A1, “AZAINDAZOLES TO TREAT FLAVIVIRIDAE VIRUS INFECTION” (EIGER BIOPHARMACEUTICALS, INC., priority 2009, published 2012)

The compounds below were run on HCV genotype 1b (assay: HCV 1b replicon luciferase assay). Conditions: Hepatitis C virus, 48 h, read-out: EC50 in the 48 hour 1b replicon assay, 48 hour.
Format: cell-based
How it was run: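 Luminescence (Steady-Glo) served as the replication read-out after 48 h compound exposure of 1b replicon-luciferase Huh7 cells seeded at 10k/well. Dosing used 5-fold serial dilutions, 10 concentrations, top 25 μM final, 0.1% DMSO, duplicates.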

`CC1CC(NCc2nn(C)c3nc(N4CCCCCC4)ccc23)CCN1` (stereo not drawn) [EBP909] and `CCC(CC)Oc1ccc2c(COCC3CCNCC3)nn(Cc3ccc(Cl)cc3)c2n1` [EBP756] cannot be ordered by EC50: less than 3 µM for the first, less than 3 µM for the second.

Same assay, conditions: Hepatitis C virus, Huh-7, 48 h, Table 1; Huh7 HCV 1b replicon, luciferase reporter, 48 hours; read-out: 1b EC50

Point of comparison: `Cn1nc(-c2ncc(-c3ccc(Br)cc3)[nH]2)c2ccc(N3CCCCCC3)nc21` [compound 1069], EC50 8.3 µM. Against it:
- Cn1nc(C(=O)NC2CCN(CCCN3CCCCC3)CC2)c2ccc(N3CCCCCC3)nc21 [compound 1041] — 7.5-fold lower, 1.1 µM
- Cn1nc(C(=O)NC2CCNCC2)c2ccc(OCc3ccc(-c4ccccc4)cc3)nc21 [compound 974] — 1.8-fold lower, 4.5 µM
- Cn1nc(C(=O)NC2CCN(Cc3ccccc3Cl)CC2)c2ccc(N3CCCCCC3)nc21 [compound 1037] — 2.4-fold lower, 3.4 µM
- Cn1nc(NC(=O)CC2CCCNC2)c2ccc(N3CCCCCC3)nc21 (stereo not drawn) [compound 843] — the same, 8.3 µM
- CC(C)CCN1CCC(NC(=O)c2nn(C)c3nc(N4CCCCCCC4)ccc23)CC1C (stereo not drawn) [compound 1233] — 1.6-fold lower, 5.3 µM
- C=CCCCCCCN1CCC(NC(=O)c2nn(C)c3nc(N4CCCCCC4)ccc23)CC1 [compound 1103] — 28-fold lower, 0.3 µM
- CC1CC(NC(=O)c2nn(C)c3nc(N4CCCCCCC4)ccc23)CCN1CCCC1CCCCC1 (stereo not drawn) [compound 1153] — 5.5-fold lower, 1.5 µM
- Cn1nc(-c2nnc(C3CCCN(CC4CCCCC4)C3)o2)c2ccc(N3CCCCCCC3)nc21 (stereo not drawn) [compound 1272] — 8.8-fold lower, 0.94 µM
- CCN(c1ccc2c(C(=O)NC3CCN(CC4CCCCC4)CC3)nn(C)c2n1)C1CCCCCC1 [compound 1183] — 11-fold lower, 0.746 µM
- Cn1nc(-c2cnc(C(=O)NCC3CCCN(CC(F)F)C3)s2)c2ccc(N3CCCCCCC3)nc21 (stereo not drawn) [compound 1261] — 4.6-fold lower, 1.8 µM
- Cn1nc(CN2CCCC2CO)c2ccc(N3CCCCCC3)nc21 (stereo not drawn) [compound 791] — within 1.5-fold, 8.5 µM
- CC1CCCCC1Oc1ccc2c(C(=O)NC3CCNCC3)nn(C)c2n1 (stereo not drawn) [compound 878] — 3-fold lower, 2.8 µM
- Cn1nc(C(=O)NC2CCNCC2)c2ccc(N3CCCCC3)nc21 [compound 861] — within 1.5-fold, 7.3 µM
- Cn1nc(C(=O)NC2CCN(S(C)(=O)=O)CC2)c2ccc(N3CCCCCC3)nc21 [compound 699] — 2.2-fold lower, 3.8 µM
- O=C(N[C@H]1CCNC1)c1nn(Cc2ccc(Cl)cc2)c2nc(N3CCCCCC3)ccc12 [compound 707] — 2.5-fold lower, 3.3 µM
- CC(C1CC1)N1CCC(NC(=O)c2nn(C)c3nc(N4CCCCCCC4)ccc23)CC1 (stereo not drawn) [compound 1311] — 8.6-fold lower, 0.97 µM
- CCC(CC)Oc1ccc2c(C(=O)NC3CCCNC3)nn(C)c2n1 (stereo not drawn) [compound 815] — within 1.5-fold, 6.6 µM
- Cn1nc(NC(=O)C2CCNCC2)c2ccc(N3CCCCCC3)nc21 [compound 1035] — within 1.5-fold, 5.7 µM
- Cn1nc(C(=O)NC2CCNCC2)c2ccc(N3CCCCCCC3)nc21 [compound 886] — 10-fold lower, 0.798 µM
- Cn1nc(-c2cnc(C(=O)NC3CCCCC3)s2)c2ccc(N3CCCCCCC3)nc21 [compound 1254] — 5.9-fold lower, 1.4 µM
- CCC(CC)Oc1ccc2c(C(=O)NC3CCNCC3)nn(Cc3ccc(Cl)cc3)c2n1 [compound 795] — 2.6-fold lower, 3.2 µM
- Cn1nc(C(=O)NC2CCN(CCN3CCCC3)CC2)c2ccc(NC3CCCCC3)nc21 [compound 1581] — 2.5-fold lower, 3.3 µM
- Cn1nc(C(=O)NC2CCN(CCO)CC2)c2ccc(N3CCCCCC3)nc21 [compound 1598] — 3.1-fold lower, 2.7 µM
- Cn1nc(C(=O)N2CCNCC2)c2ccc(N3CCCCCC3)nc21 [compound 823] — within 1.5-fold, 7.6 µM
- Cn1nc(-c2nnc(C3CCCN(CC(F)F)C3)o2)c2ccc(N3CCCCCCC3)nc21 (stereo not drawn) [compound 1273] — 1.7-fold lower, 4.8 µM
- Cn1nc(CCCN2CCC[C@@H]2CO)c2ccc(N3CCCCCCC3)nc21 [compound 1464] — 4.2-fold lower, 2 µM
- Cn1nc(C(=O)NC2CCN(CCN3CCCCC3)CC2)c2ccc(NC3CCCCCCC3)nc21 [compound 1468] — 25-fold lower, 0.33 µM
- CN(Cc1ccccc1)c1ccc2c(C(=O)NC3CCNCC3)n[nH]c2n1 [compound 777] — 4.2-fold lower, 2 µM
- O=C(NC1CCNCC1)c1nn(S(=O)(=O)C2CCCCC2)c2nc(N3CCCCCC3)ccc12 [compound 988] — 1.5-fold lower, 5.4 µM
- Cn1nc(C(=O)N[C@H]2C[C@H]3CC[C@@H](C2)N3)c2ccc(N3CCCCCC3)nc21 [compound 984] — 3.8-fold lower, 2.2 µM
